In patent US10738041B2, “Ferroportin inhibitors” (Vifor (International) AG, priority 2015, dated 2020):

What was measured:
ferroportin = molecular target: T1, ferroportin (Homo sapiens, UniProt Q9NP59); assay: Inhibition of Iron Efflux by Ferroportin Inhibitors; assay type: cell-based; settings: T47D cells, 58Fe in supernatant, 20 h; representative (FIG. 2)
T1 construct: host or cells: T47D cells
T1 sequence (Q9NP59 1-571): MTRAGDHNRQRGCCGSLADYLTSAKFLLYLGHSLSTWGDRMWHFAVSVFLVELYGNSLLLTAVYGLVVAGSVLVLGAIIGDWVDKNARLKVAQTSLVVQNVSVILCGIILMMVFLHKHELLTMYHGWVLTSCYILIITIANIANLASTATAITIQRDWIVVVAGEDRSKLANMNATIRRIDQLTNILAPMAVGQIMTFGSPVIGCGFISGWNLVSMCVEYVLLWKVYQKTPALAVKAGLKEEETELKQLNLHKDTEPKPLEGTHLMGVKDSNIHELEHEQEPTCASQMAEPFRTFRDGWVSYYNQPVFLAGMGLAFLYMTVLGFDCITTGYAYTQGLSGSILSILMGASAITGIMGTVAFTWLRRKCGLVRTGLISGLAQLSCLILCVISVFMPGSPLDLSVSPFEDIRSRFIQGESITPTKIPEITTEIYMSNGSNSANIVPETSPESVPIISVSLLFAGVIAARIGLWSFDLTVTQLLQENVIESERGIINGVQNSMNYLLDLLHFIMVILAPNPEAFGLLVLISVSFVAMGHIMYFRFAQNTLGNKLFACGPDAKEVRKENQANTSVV
Description: The activity of hepcidin and ferroportin inhibitor compounds regarding their ability to block iron export via ferroportin was tested on T47D cells (ECACC, Cat. 85102201) as described below.
Cells were plated in 24-well plates (Greiner, Cat. 662160) containing 350,000 cells/well and incubated overnight with 100 μM ^58Fe (^58Fe(II)-Sulfate, Vifor Pharma Batch No. ROR 3085) in 500 μM L-Ascorbic Acid (Sigma Aldrich, Cat. 795437) containing growth medium. […] A serial dilution of hepdicin (Bachem) or ferroportin inhibitors (4 μM-0.0064 μM, 5 fold dilution) was added in a total volume of 0.6 ml per well. Cells were incubated at 37° C. with 5% CO2 for 20 h. Supernatants were collected and ^58Fe was measured using inductively coupled plasma mass spectrometry (ICP-MS, Thermo Scientific, Element 2). Pellets were harvested for protein concentration measurements. Results are plotted as ng^58Fe in supernatant per mg protein in cell lysates.

ferroportin (Fpn) = molecular target: T2, ferroportin (Fpn) (Mus musculus, UniProt Q9JHI9); assay: Ferroportin Ubiquitination and Degradation (immunoprecipitation, Western blot); assay type: cell-based; design: key: + comparable to hepcidin; − no effect; +/− intermediate effect; settings: J774 cells; visual inspection of Western blots; concentration per compound ca. 10-fold J774 IC50
T2 construct: host or cells: J774 mouse macrophage cell line, Fe(III)-NTA induced
T2 sequence (Q9JHI9 1-570): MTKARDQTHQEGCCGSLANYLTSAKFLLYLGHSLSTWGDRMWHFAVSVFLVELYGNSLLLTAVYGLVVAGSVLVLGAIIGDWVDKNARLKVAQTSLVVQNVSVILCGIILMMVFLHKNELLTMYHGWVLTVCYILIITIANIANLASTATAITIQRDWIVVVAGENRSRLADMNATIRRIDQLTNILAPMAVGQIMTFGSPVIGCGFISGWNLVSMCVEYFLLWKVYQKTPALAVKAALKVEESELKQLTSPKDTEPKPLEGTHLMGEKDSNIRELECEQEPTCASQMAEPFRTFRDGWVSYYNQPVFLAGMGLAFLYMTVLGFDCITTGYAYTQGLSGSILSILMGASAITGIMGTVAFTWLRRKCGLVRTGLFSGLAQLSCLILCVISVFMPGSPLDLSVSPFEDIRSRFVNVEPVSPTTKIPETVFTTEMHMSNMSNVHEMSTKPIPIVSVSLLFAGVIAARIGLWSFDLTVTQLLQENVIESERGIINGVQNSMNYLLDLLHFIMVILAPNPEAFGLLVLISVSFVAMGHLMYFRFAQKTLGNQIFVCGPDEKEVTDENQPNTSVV
Description: Exposure of cells expressing ferroportin (Fpn) to hepcidin is known to trigger ubiquitination aid subsequent internalization and degradation of Fpn (Qiao, 2012). The potential of Fpn inhibitors to induce Fpn ubiquitination and degradation was investigated with an immunoprecipitation assay using the J774 mouse macrophage cell line which expresses Fpn upon treatment with iron.
Cells were incubated with synthetic human hepcidin (Bachem, Cat. H-5926) or Fpn inhibitor compounds for 10 min or 120 min. Cells were washed and lysed witi ice-cold lysis buffer (Pierce, Life Technoligies, Cat. 87787) including 1× HALT protease inhibitor cocktail (Life technologies, Cat. 78429) and 10 mM iodoacetamide (Sigma, Cat. 16125) to stabilize ubiquitinated proteins. Immunoprecipitation was done using the Pierce Classic IP Kit (Life Technologies, Cat. 26146) following the manufacturer's protocol. Briefly, 2 mg protein in 1.25 ml IP lysis buffer was incubated by mixing for 1 h at 4° C. with control agarose beads to pre-clear the lysate and reduce nonspecific signal. Unbound lysate was then incubated overnight with 12 μg per reaction of the affinity purified anti-Fpn antibody F308 that was raised against a GST fusion protein of mouse Fpn amino acids 224308. Immune complexes were captured by pipetting 14 μl settled Pierce Protein A/G Plus Agarose beads (Life Technologies, Cat. 20423) per reaction and the slurry was incubated for 1.5 h at 4° C. with gentle end-over-end mixing. The beads were washed and immune complexes were eluted directly with 75 μl SDS NuPAGE LDS sample buffer (Life Technologies, Cat. NP0007) containing DTT (Life Technologies, Cat. NP0009). After immunoprecipitation samples were analyzed by Western blotting using a rabbit anti-mouse MTP1 antiserum (Alpha Diagnostic International, Cat. MTP11-A) and a mouse anti-mono- and polyubiquitinylated conjugates monoclonal antibody (Enzo Lifesciences, Cat. BML-PW8810) for detection of ferroportin and ubiquitin, respectively. Mouse monoclonal anti-rabbit IgG light chain (Abcam, Cat. ab99697) and anti-mouse IgG H&L (Abcam, Cat. ab6789) HRP conjugates were used as secondary antibodies.
A selection of eleven Fpn inhibitors were tested in this assay and compared to hepcidin.
J774 cells were incubated overnight with Fe(III)-NTA to induce expression of Fpn. […] Mock treated cells were harvested after 120 min (Control).

Row | SMILES | IC50 (ferroportin) | Fpn Degradation (120 min.) (ferroportin (Fpn)) | Fpn Ubiquitination (10 min.) (ferroportin (Fpn))
1 | CC[C@H](C)[C@@H]1NC(=O)[C@@H](NC(=O)[C@@H](NC(=O)[C@@H]2CCCN2C(=O)[C@H](Cc2ccccc2)NC(=O)[C@H](Cc2c[nH]cn2)NC(=O)[C@@H](NC(=O)[C@@H](N)CC(=O)O)[C@@H](C)O)[C@@H](C)CC)CSSC[C@@H](C(=O)N[C@@H](CCCCN)C(=O)N[C@H](C(=O)O)[C@@H](C)O)NC(=O)[C@@H]2CSSC[C@@H]3NC(=O)[C@@H]4CSSC[C@H](NC(=O)[C@H](Cc5ccccc5)NC1=O)C(=O)N[C@@H](CSSC[C@H](NC(=O)[C@H](CCCCN)NC(=O)[C@H](CO)NC(=O)[C@H](CCCNC(=N)N)NC(=O)[C@H](Cc1c[nH]cn1)NC3=O)C(=O)NCC(=O)N[C@@H](CCSC)C(=O)N2)C(=O)NCC(=O)N4 [hepcidin, reference compound] | 86 nM | + | +
2 | O=C(NCc1ncccc1F)c1coc(CCNCc2nc3ccccc3[nH]2)n1 [Example 126] | – | + | +/−
3 | O=C(NCc1ncccc1F)c1coc(CCNCCc2nc3ccccc3[nH]2)n1 [Example 127] | 80 nM | – | –
